The values below come from patent US11219625B2, “Inhibitors of N-linked glycosylation and methods using same” (YALE UNIVERSITY, priority 2015, dated 2022).

Molecules are shown by their SMILES.

One data set has as its system N-linked glycosylation. As to the kind of experiment: D54-ERLucT cell based luciferase assay for inhibition of N-linked glycosylation. The note with it: D54-ERLucT cells, luciferase activation. The text has this:
(§1) The HTS approach using the bioluminescent N-linked glycosylation reporter (CCR 2011) in D54-ERLucT and D54-LucT cells has been previously described (Bennett, et al., Transl Oncol 2013, 6, 382-391). Briefly, the primary cell-based screen detects site occupancy of NLG sequons using a modified luciferase protein translated into the ER. […] The methodology for the primary (D54-ERlucT), secondary (D54-LucT), and tertiary (luciferase inhibition) screens as well and toxicity assays with CelltitreGlo are deposited in Pubchem (AID 588693).
The primary screen was developed in the D54 glioma cell line using a modified P. pyralis luciferase gene (ER-LucT) that is ER translated and glycosylated at three N-linked glycosylation consensus sequences. Glycosylation of the reporter inactivates luciferase enzymatic activity providing a robust methodology to detect inhibition of this process. D54 cells expressing a non-ER translated luciferase (LucT) insensitive to inhibition of N-linked glycoysation were used as a secondary screen for false positives. The primary screen was performed in duplicate and values were normalized to the average of positive control wells (Tunicamycin) minus averaged neutral vehicle treated wells per run. Compounds with replicate activity greater than three standard deviations above the mean average of control wells were selected for further study. A subset of 1,845 compounds met this criterion, and were advanced to simultaneous retesting in both the primary screen and a secondary (false positive) cell-based screen. […] Compounds were further triaged from consideration by consulting the Pubchem bioassay database and deprioritizing compounds showing a promiscuity rate higher than 5% across assays or by removing PAINS scaffolds (Baell, et al., J Med Chem 2010, 53, 2719-2740). Remaining compounds were assessed by medicinal chemistry review to score synthetic tractability and known issues with instability, poor solubility, or toxicity. This analysis yielded 39 compounds that were tested in a cell-free assay to detect luciferase inhibitors (Auld, et al., Proc Natl Acad Sci USA 2010, 107, 4878-4883) and by western blot analysis to detect gel mobility changes of the luciferase reporter, consistent with inhibition of N-linked glycosylation. This approach identified one aminobenzamidosulfonamide compound that blocked N-linked glycosylation.
(§2) To better understand the connection between structure and activity, analogs were prepared and tested in the D54-ERLucT cell based assay for inhibition of N-linked glycosylation (FIG. 1B). The assay was used to estimate and compare AC40 values among analogs and to guide the design of improved compounds that inhibited N-linked glycosylation. This effort generated 36 unique compounds with modifications to the amine component of the sulfonamide functionality (red), the pyrrolidine moiety (blue) or the methylaminothiazole group (green). Generally, incorporation of larger sulfonamides (i.e., larger secondary amines appended to the sulphone) was not well tolerated, resulting in erosion of potency (7 analogs). However, steric interactions could be mitigated by the introduction of a hydrogen bond accepting oxygen in a larger cyclic amine. Thus, morpholine was determined to be an acceptable surrogate for the dimethylamine component of the sulfonamide (FIGS. 1A-1D). The pyrrolidine group (blue) was replaced with various alkyl, cycloalkyl, and amine groups (7 compounds). The aminothiazole moiety was derivatized most extensively of all three regions (green highlighted area, 22 analogs). […] Analogs with the highest potency in the luciferase assay were retested with western blot analysis to insure that measurements of luciferase activation corresponded to loss of N-linked glycosylation.

A short description of data set [1]: Celltiter Glo viability assay, HepG2. The data set is classed as cell-based. The note with it: human, HepG2 cells; HEPG2, 72 h of compound exposure; read-out: Cytotoxicity Assay Mean EC50.
Excerpt: as §1, §2

The nature of data set [2]: Celltiter Glo viability assay, HEK293. The data set is classed as cell-based. The note with it: human, HEK293 cells; HEK293, 72 h of compound exposure; read-out: Cytotoxicity Assay Mean EC50.
Excerpt: as §1, §2

In the next data set the test system is HepG2 cells. As to the kind of experiment: Celltiter Glo viability assay, HepG2. The data set is classed as cell-based. The note with it: HEPG2 EC50 over NLG AC40.
Excerpt: as §1, §2

For another data set, the system named is HEK293 cells. As to the kind of experiment: Celltiter Glo viability assay, HEK293. The data set is classed as cell-based. The note with it: HEK293 EC50 over NLG AC40.
Excerpt: as §1, §2

Regarding `CN(C)S(=O)(=O)c1ccc(N2CCCC2)c(C(=O)Nc2ccccc2Cl)c1` [Entry 19, 5-(dimethylsulfamoyl)-N-(2-chlorophenyl)-2-pyrrolidin-1-ylbenzamide], the “NLG Inhibition max act, %” value with N-linked glycosylation came to 24.7%. Also, the EC50 at 72 h in data set [1] and in data set [2] was above 30 µM in each case.
In the case of `Cc1ccccc1NC(=O)c1cc(S(=O)(=O)N(C)C)ccc1N1CCCC1` [Entry 13, 5-(dimethylsulfamoyl)-N-(2-methylphenyl)-2-pyrrolidin-1-ylbenzamide], the “NLG Inhibition max act, %” value in the data set on N-linked glycosylation came to 10.7%. Also, the EC50 at 72 h in data set [1] and in data set [2] was above 30 µM throughout.
As to `CN(C)S(=O)(=O)c1ccc(N2CCCC2)c(C(=O)Nc2ccncc2)c1` [Entry 11, 5-(dimethylsulfamoyl)-N-pyridin-4-yl-2-pyrrolidin-1-ylbenzamide], the “NLG Inhibition max act, %” value in the data set with N-linked glycosylation was found to be 25%. In addition, the EC50 at 72 h in data set [1] and in data set [2] was above 30 µM throughout.
Consider `Cc1ccc(NC(=O)c2cc(S(=O)(=O)N(C)C)ccc2N2CCCC2)cc1` [Entry 14, 5-(dimethylsulfamoyl)-N-(4-methylphenyl)-2-pyrrolidin-1-ylbenzamide], for which the “NLG Inhibition ASSAY Potency Mean AC40” value in the data set on N-linked glycosylation was found to be 1.2 µM. Also, the “NLG Inhibition max act, %” value with N-linked glycosylation is given as 305.0%. Moreover, the 50% effective concentration (EC50) at 72 h in data set [1] and in data set [2] was above 30 µM in each case. In addition, the “Selectivity (EC50/AC40)” value in the data set on HepG2 cells and with HEK293 cells was above 25.0 in each case.
For the compound `COc1ccc(NC(=O)c2cc(S(=O)(=O)N(C)C)ccc2N2CCCC2)cc1` [Entry 16, 5-(dimethylsulfamoyl)-N-(4-methoxyphenyl)-2-pyrrolidin-1-ylbenzamide], the “NLG Inhibition ASSAY Potency Mean AC40” value in the data set with N-linked glycosylation came to 10.3 µM. The “NLG Inhibition max act, %” value with N-linked glycosylation was determined as 79.9%. Besides, the EC50 at 72 h in data set [1] and in data set [2] was above 30 µM in each case. The “Selectivity (EC50/AC40)” value in the data set on HepG2 cells and with HEK293 cells was above 2.9 throughout.
Regarding `CN(C)S(=O)(=O)c1ccc(N2CCCC2)c(C(=O)Nc2ccccc2)c1` [Entry 12, 5-(dimethylsulfamoyl)-N-phenyl-2-pyrrolidin-1-ylbenzamide], the “NLG Inhibition ASSAY Potency Mean AC40” value with N-linked glycosylation came to 1.1 µM. The “NLG Inhibition max act, %” value in the data set on N-linked glycosylation is given as 183.0%. Also, the EC50 at 72 h in data set [1] and in data set [2] was above 30 µM in each case. Also, the “Selectivity (EC50/AC40)” value with HepG2 cells and in the data set with HEK293 cells was above 27.8 in each case.
`CN(C)S(=O)(=O)c1ccc(N2CCCC2)c(C(=O)Nc2cccnc2)c1` [Entry 10, 5-(dimethylsulfamoyl)-N-pyridin-3-yl-2-pyrrolidin-1-ylbenzamide]: in the data set on N-linked glycosylation, the “NLG Inhibition max act, %” value was found to be 48.4%. Moreover, the EC50 at 72 h in data set [1] and in data set [2] was above 30 µM in each case.
In the case of `CN(C)S(=O)(=O)c1ccc(N2CCCC2)c(C(=O)N2CCOCC2)c1` [Entry 21, N,N-Dimethyl-3-(morpholine-4-carbonyl)-4-(pyrrolidin-1-yl)benzenesulfonamide], the “NLG Inhibition max act, %” value with N-linked glycosylation is 23.6%. The EC50 at 72 h in data set [1] and in data set [2] was above 30 µM throughout.
Consider `COc1ccccc1NC(=O)c1cc(S(=O)(=O)N(C)C)ccc1N1CCCC1` [Entry 15, 5-(dimethylsulfamoyl)-N-(2-methoxyphenyl)-2-pyrrolidin-1-ylbenzamide], for which the “NLG Inhibition max act, %” value in the data set on N-linked glycosylation is 30.1%. In addition, the EC50 at 72 h in data set [1] and in data set [2] was above 30 µM in each case.
With `CN(C)S(=O)(=O)c1ccc(N2CCCC2)c(C(=O)NC2CCCCC2)c1` [Entry 22, N-cyclohexyl-5-(dimethylsulfamoyl)-2-pyrrolidin-1-ylbenzamide], the EC50 at 72 h in data set [1] and in data set [2] was above 30 µM throughout.
Take `CN(C)S(=O)(=O)c1ccc(N2CCCC2)c(C(=O)Nc2ccc(Br)cc2)c1` [Entry 20, 5-(dimethylsulfamoyl)-N-(4-bromophenyl)-2-pyrrolidin-1-ylbenzamide]: in the data set on N-linked glycosylation, the “NLG Inhibition max act, %” value is 32%. The EC50 at 72 h in data set [1] and in data set [2] was above 30 µM throughout.
As to `CN(C)C(=O)c1cc(S(=O)(=O)N(C)C)ccc1N1CCCC1` [Entry 23, 5-(dimethylsulfamoyl)-N,N-dimethyl-2-pyrrolidin-1-ylbenzamide], the “NLG Inhibition max act, %” value in the data set on N-linked glycosylation was 32.1%. The EC50 at 72 h in data set [1] and in data set [2] was above 30 µM in each case.
Turning to `CN(C)S(=O)(=O)c1ccc(N2CCCC2)c(C(=O)Nc2cccc(F)c2)c1` [Entry 18, 5-(dimethylsulfamoyl)-N-(3-fluorophenyl)-2-pyrrolidin-1-ylbenzamide], in the data set with N-linked glycosylation, the “NLG Inhibition ASSAY Potency Mean AC40” value is 2.6 µM. For the same compound, the “NLG Inhibition max act, %” value in the data set on N-linked glycosylation is reported as 107.7%. Also, the EC50 at 72 h in data set [1] and in data set [2] was above 30 µM in each case. Besides, the “Selectivity (EC50/AC40)” value in the data set with HepG2 cells and in the data set on HEK293 cells was above 11.5 in each case.
As for `COc1ccc2nc(NC(=O)c3cc(S(=O)(=O)N(C)C)ccc3N3CCCC3)sc2c1` [Entry 9, 5-(dimethylsulfamoyl)-N-(6-methoxy-1,3-benzothiazol-2-yl)-2-pyrrolidin-1-ylbenzamide], in the data set on N-linked glycosylation, the “NLG Inhibition ASSAY Potency Mean AC40” value was 13.1 µM. In addition, the “NLG Inhibition max act, %” value in the data set with N-linked glycosylation is given as 85.7%. The EC50 at 72 h in data set [1] and in data set [2] was above 30 µM each time. Besides, the “Selectivity (EC50/AC40)” value in the data set with HepG2 cells and in the data set on HEK293 cells was above 2.3 throughout.
Consider `CN(C)S(=O)(=O)c1ccc(N2CCCC2)c(C(=O)Nc2ccccc2F)c1` [Entry 17, 5-(dimethylsulfamoyl)-N-(2-fluorophenyl)-2-pyrrolidin-1-ylbenzamide], for which the EC50 at 72 h in data set [1] and in data set [2] was above 30 µM throughout.
